From ChEMBL document CHEMBL1150765, “Clavatadine A, a natural product with selective recognition and irreversible inhibition of factor XIa” (J Med Chem, 2008) come the findings set out here.

For assay [1], the target named is Coagulation factor IX (Homo sapiens) (UniProt P00740). Put plainly: Inhibition of factor 9a at 222 uM.
Assay [2] concerns the target Coagulation factor XI (Homo sapiens, UniProt P03951). Put plainly: Inhibition of factor 11a.

Sequence of Coagulation factor IX (Homo sapiens) (P00740 47-191 limits assumed): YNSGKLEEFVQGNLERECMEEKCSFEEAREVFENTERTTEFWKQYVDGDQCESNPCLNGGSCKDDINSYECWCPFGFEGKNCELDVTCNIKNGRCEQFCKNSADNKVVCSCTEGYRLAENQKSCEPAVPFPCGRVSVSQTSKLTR
Sequence of Coagulation factor IX (Homo sapiens) (P00740 227-461 limits assumed): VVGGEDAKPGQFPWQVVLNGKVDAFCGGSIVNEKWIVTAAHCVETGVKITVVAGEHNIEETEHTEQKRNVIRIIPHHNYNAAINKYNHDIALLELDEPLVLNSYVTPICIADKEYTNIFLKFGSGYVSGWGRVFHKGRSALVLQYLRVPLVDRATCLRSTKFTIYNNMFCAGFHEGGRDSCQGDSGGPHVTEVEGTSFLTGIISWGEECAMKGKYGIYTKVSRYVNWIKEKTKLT
Sequence of Coagulation factor XI (P03951 19-387 limits assumed): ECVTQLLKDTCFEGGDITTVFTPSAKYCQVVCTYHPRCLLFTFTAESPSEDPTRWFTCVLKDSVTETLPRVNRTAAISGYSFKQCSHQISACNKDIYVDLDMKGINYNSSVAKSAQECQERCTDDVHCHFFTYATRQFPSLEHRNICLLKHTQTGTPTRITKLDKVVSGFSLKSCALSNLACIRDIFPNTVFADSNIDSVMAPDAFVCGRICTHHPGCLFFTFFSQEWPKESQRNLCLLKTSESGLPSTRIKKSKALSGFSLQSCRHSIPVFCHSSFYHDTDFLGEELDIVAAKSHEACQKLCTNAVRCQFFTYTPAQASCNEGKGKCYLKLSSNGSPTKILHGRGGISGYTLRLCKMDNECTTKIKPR
Sequence of Coagulation factor XI (P03951 388-625 limits assumed): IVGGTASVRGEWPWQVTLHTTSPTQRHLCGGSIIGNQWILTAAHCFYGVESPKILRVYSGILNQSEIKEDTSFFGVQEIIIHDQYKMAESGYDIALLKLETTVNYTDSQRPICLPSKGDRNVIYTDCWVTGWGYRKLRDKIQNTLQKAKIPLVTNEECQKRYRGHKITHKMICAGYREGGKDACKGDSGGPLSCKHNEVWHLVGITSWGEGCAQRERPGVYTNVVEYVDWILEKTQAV

For `N=C(N)NCCCCNC(=O)Oc1c(Br)cc(O)c(CC(=O)O)c1Br` [CLAVATADINE A], the inhibition – broadly, the share of the control response that was lost under treatment – in assay [1] is below 5%. Moreover, the IC50 (as a rule, the concentration that inhibits the measured activity by half) in assay [2] worked out at 1.3 µM.
The corresponding values for `N=C(N)NCCCCNC(=O)Oc1cc(Br)c(O)c(Br)c1CC(N)=O` [CLAVATADINE B] are below 5% and 27 µM.
